Experimental data: PMC7345905, “Microbial Metabolite Urolithin B Inhibits Recombinant Human Monoamine Oxidase A Enzyme” (Metabolites, 2020)
Several values for one entry are separate records, joined by “and”; a condition that tells them apart may be missing. Identical values can stand only once.

Assays:
[1] = biological target: T1, human recombinant MAO-B (Homo sapiens, UniProt P27338); assay: MAO-Glo MAO-B inhibition assay; type: biochemical; settings: N=1-3, listed as UroB
T1 construct: purchased Sigma-Aldrich
T1 sequence (P27338 1-520): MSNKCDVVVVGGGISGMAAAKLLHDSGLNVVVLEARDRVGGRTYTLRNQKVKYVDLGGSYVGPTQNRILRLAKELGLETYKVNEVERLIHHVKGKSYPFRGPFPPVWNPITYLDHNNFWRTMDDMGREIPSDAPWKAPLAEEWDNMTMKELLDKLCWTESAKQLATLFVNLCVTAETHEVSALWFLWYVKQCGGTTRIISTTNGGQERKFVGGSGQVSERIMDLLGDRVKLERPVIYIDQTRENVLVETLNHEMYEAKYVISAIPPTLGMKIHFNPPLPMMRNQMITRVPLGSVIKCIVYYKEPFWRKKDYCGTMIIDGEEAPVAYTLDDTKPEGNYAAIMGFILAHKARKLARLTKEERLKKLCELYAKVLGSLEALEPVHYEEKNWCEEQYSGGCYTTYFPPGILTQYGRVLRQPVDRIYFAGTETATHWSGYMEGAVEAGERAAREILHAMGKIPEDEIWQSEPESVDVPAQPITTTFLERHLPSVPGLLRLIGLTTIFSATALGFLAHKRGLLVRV
Method: (§1) MAO inhibition assays were performed using a MAO-Glo™ Assay kit (Promega) according to the manufacturer’s instructions. Briefly, 1 µg of human recombinant MAO-A and MAO-B enzyme isoforms were incubated with 160 and 16 µM of MAO substrates, respectively. […] The enzyme reaction was quenched by the addition of a luciferin detection reagent. […] An equal volume of dimethyl sulfoxide (0.1%) was added to the enzyme assay as a control. After 1 h of incubation, the luminescence was measured with a multimode microplate reader (Synergy HT, BioTek, Winooski, VT, USA) to determine the MAO enzyme activities. Initially, the inhibition potential of all the test compounds was evaluated at a concentration of 100 μM. The control reaction (with no inhibitor) with vehicle (DMSO 0.1%) was set at 100% activity. To determine IC50 of the test compounds, the dose dependent enzyme assays were performed. We used range of 0.1 to 50 μM concentrations for MAO-A and 0.1 to 200 μM concentrations of test compounds for the MAO-B enzyme activities. The type of enzyme inhibition was determined using variable concentrations of MAO-A substrate (10–360 µM) and MAO-B substrate (2–64 µM) for the respective enzyme assay. […] A Lineweaver–Burk double reciprocal plot was generated, and the mode of inhibition was determined by visual examination of the plot. The slope of the reciprocal plots was plotted against the inhibitor concentrations and determined the x-axis intercept that represented the inhibitor constant, Ki value.

[2] = biological target: T2, human recombinant MAO-A (Homo sapiens, UniProt P21397); assay: MAO-A inhibition kinetics (variable substrate, Lineweaver–Burk plot); type: biochemical; design: Michaelis-Menten best-fit Vmax of MAO-A / Michaelis-Menten best-fit Vmax of MAO-A, Average: unit not given here; settings: for MAO-A assay signal (luminescence) / Transformed (reciprocal of MAO-A assay signal) / Michaelis-Menten best-fit Vmax of MAO-A: N=1-3
T2 construct: purchased Sigma-Aldrich
T2 sequence (P21397 1-527): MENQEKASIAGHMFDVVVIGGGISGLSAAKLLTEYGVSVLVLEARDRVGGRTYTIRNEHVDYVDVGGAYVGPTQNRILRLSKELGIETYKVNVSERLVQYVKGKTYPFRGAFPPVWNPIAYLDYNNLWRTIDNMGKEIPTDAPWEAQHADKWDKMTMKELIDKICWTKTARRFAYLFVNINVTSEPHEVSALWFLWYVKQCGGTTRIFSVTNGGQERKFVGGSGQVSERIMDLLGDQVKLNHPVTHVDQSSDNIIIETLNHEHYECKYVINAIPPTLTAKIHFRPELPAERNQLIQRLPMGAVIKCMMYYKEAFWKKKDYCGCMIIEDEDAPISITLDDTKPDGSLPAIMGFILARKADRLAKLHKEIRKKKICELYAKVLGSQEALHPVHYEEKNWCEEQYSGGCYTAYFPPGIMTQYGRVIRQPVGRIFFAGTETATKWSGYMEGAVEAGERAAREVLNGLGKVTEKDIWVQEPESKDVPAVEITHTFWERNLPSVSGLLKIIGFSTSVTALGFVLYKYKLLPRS
Method: as §1
All experiments were performed in triplicates and data are presented as mean ± standard error of the mean (SEM). The raw data are provided in Supplementary Data, Table S1. Enzyme kinetic data were analyzed using the Lineweaver–Burk plot. Statistical analysis was performed by Student’s t-test using GraphPad Prism Ver. 7.0 (GraphPad Prism Software Inc., San Diego, CA, USA).

[3] = UroB 0.4 µM, MAO-A substrate 10 uM
[4] = UroB 0.4 µM, MAO-A substrate 20 uM
[5] = UroB 0.4 µM, MAO-A substrate 40 uM
[6] = UroB 0.4 µM, MAO-A substrate 80 uM
[7] = UroB 0.4 µM, MAO-A substrate 160 uM
[8] = UroB 0.4 µM, MAO-A substrate 320 uM
[9] = UroB 2 µM, MAO-A substrate 10 uM
[10] = UroB 2 µM, MAO-A substrate 20 uM
[11] = UroB 2 µM, MAO-A substrate 40 uM
[12] = UroB 2 µM, MAO-A substrate 80 uM
[13] = UroB 2 µM, MAO-A substrate 160 uM
[14] = UroB 2 µM, MAO-A substrate 320 uM

O=c1oc2cc(O)ccc2c2ccccc12 [UB, urolithin-B]
MAO-B enzyme assay, Percent of control ([1]; 0.1 µM): 107.968% of control and 101.629% of control and 95.3271% of control | MAO-B enzyme assay, Percent of control ([1]; 1 µM): 109.561% of control and 99.5806% of control and 93.6856% of control | MAO-B enzyme assay, Percent of control ([1]; 10 µM): 97.6995% of control and 92.8109% of control and 92.0441% of control | MAO-B enzyme assay, Percent of control ([1]; 25 µM): 95.5787% of control and 94.7999% of control and 85.3343% of control | MAO-B enzyme assay, Percent of control ([1]; 50 µM): 93.9851% of control and 85.8855% of control and 84.5675% of control | MAO-B enzyme assay, Percent of control ([1]; 100 µM (Figure 1C), 100 µM): 92.2554% of control and 86.0762% of control and 81.4109% of control | MAO-B enzyme assay, Percent of control ([1]; 100 µM): 74.6465% of control and 81.8955% of control and 81.8476% of control | MAO-B enzyme assay, Percent of control ([1]; 200 µM): 35.5859% of control and 42.116% of control and 26.5397% of control | mode of inhibition of MAO-A ([2]; Lineweaver–Burk plot): mixed mode of inhibition | MAO-A assay signal (luminescence), Average [2, 3]: 1545 | MAO-A assay signal (luminescence) [2, 3]: 1603 and 1392 and 1640 | MAO-A assay signal (luminescence), Average [2, 4]: 2811.33 | MAO-A assay signal (luminescence) [2, 4]: 2815 and 2835 and 2784 | MAO-A assay signal (luminescence), Average [2, 5]: 5085 | MAO-A assay signal (luminescence) [2, 5]: 5099 and 4835 and 5321 | MAO-A assay signal (luminescence), Average [2, 6]: 9642.33 | MAO-A assay signal (luminescence) [2, 6]: 9741 and 9698 and 9488 | MAO-A assay signal (luminescence), Average [2, 7]: 17162.3 | MAO-A assay signal (luminescence) [2, 7]: 17107 and 16984 and 17396 | MAO-A assay signal (luminescence), Average [2, 8]: 26885 | MAO-A assay signal (luminescence) [2, 8]: 27251 and 26905 and 26499 | Transformed (reciprocal of MAO-A assay signal), Average ([2]; UroB 0.4 µM, [1/S] 0.003125): 3.72e-5 | Transformed (reciprocal of MAO-A assay signal) ([2]; UroB 0.4 µM, [1/S] 0.003125): 3.67e-5 and 3.717e-5 and 3.774e-5 | Transformed (reciprocal of MAO-A assay signal), Average ([2]; UroB 0.4 µM, [1/S] 0.00625): 5.827e-5 | Transformed (reciprocal of MAO-A assay signal) ([2]; UroB 0.4 µM, [1/S] 0.00625): 5.846e-5 and 5.888e-5 and 5.748e-5 | Transformed (reciprocal of MAO-A assay signal), Average ([2]; UroB 0.4 µM, [1/S] 0.0125): 0.0001037 | Transformed (reciprocal of MAO-A assay signal) ([2]; UroB 0.4 µM, [1/S] 0.0125): 0.0001027 and 0.0001031 and 0.0001054 | Transformed (reciprocal of MAO-A assay signal), Average ([2]; UroB 0.4 µM, [1/S] 0.025): 0.0001967 | Transformed (reciprocal of MAO-A assay signal) ([2]; UroB 0.4 µM, [1/S] 0.025): 0.0001961 and 0.0002068 and 0.0001879 | Transformed (reciprocal of MAO-A assay signal), Average ([2]; UroB 0.4 µM, [1/S] 0.05): 0.0003557 | Transformed (reciprocal of MAO-A assay signal) ([2]; UroB 0.4 µM, [1/S] 0.05): 0.0003552 and 0.0003527 and 0.0003592 | Transformed (reciprocal of MAO-A assay signal), Average ([2]; UroB 0.4 µM, [1/S] 0.1): 0.0006472 | Transformed (reciprocal of MAO-A assay signal) ([2]; UroB 0.4 µM, [1/S] 0.1): 0.0006238 and 0.0007184 and 0.0006098 | MAO-A assay signal (luminescence), Average [2, 9]: 917 | MAO-A assay signal (luminescence) [2, 9]: 965 and 892 and 894 | MAO-A assay signal (luminescence), Average [2, 10]: 1607 | MAO-A assay signal (luminescence) [2, 10]: 1578 and 1604 and 1639 | MAO-A assay signal (luminescence), Average [2, 11]: 2957.33 | MAO-A assay signal (luminescence) [2, 11]: 3058 and 2874 and 2940 | MAO-A assay signal (luminescence), Average [2, 12]: 5505.33 | MAO-A assay signal (luminescence) [2, 12]: 5631 and 5490 and 5395 | MAO-A assay signal (luminescence), Average [2, 13]: 10332.7 | MAO-A assay signal (luminescence) [2, 13]: 10318 and 10224 and 10456 | MAO-A assay signal (luminescence), Average [2, 14]: 17850.7 | MAO-A assay signal (luminescence) [2, 14]: 18126 and 17343 and 18083 | Transformed (reciprocal of MAO-A assay signal), Average ([2]; UroB 2 µM, [1/S] 0.003125): 5.602e-5 | Transformed (reciprocal of MAO-A assay signal) ([2]; UroB 2 µM, [1/S] 0.003125): 5.517e-5 and 5.766e-5 and 5.53e-5 | Transformed (reciprocal of MAO-A assay signal), Average ([2]; UroB 2 µM, [1/S] 0.00625): 9.678e-5 | Transformed (reciprocal of MAO-A assay signal) ([2]; UroB 2 µM, [1/S] 0.00625): 9.6918e-5 and 9.781e-5 and 9.564e-5 | Transformed (reciprocal of MAO-A assay signal), Average ([2]; UroB 2 µM, [1/S] 0.0125): 0.0001816 | Transformed (reciprocal of MAO-A assay signal) ([2]; UroB 2 µM, [1/S] 0.0125): 0.0001776 and 0.0001821 and 0.0001854 | Transformed (reciprocal of MAO-A assay signal), Average ([2]; UroB 2 µM, [1/S] 0.025): 0.0003381 | Transformed (reciprocal of MAO-A assay signal) ([2]; UroB 2 µM, [1/S] 0.025): 0.000327 and 0.0003479 and 0.0003401 | Transformed (reciprocal of MAO-A assay signal), Average ([2]; UroB 2 µM, [1/S] 0.05): 0.0006223 | Transformed (reciprocal of MAO-A assay signal) ([2]; UroB 2 µM, [1/S] 0.05): 0.0006337 and 0.0006234 and 0.0006101 | Transformed (reciprocal of MAO-A assay signal), Average ([2]; UroB 2 µM, [1/S] 0.1): 0.001091 | Transformed (reciprocal of MAO-A assay signal) ([2]; UroB 2 µM, [1/S] 0.1): 0.001036 and 0.001121 and 0.001119 | Michaelis-Menten best-fit Vmax of MAO-A, Average ([2]; in presence of UroB 0.4 uM): 65357.3 | Michaelis-Menten best-fit Vmax of MAO-A ([2]; in presence of UroB 0.4 uM): 61114 and 67822 and 67136 | Michaelis-Menten best-fit Vmax of MAO-A, Average ([2]; in presence of UroB 2 uM): 66008.7 | Michaelis-Menten best-fit Vmax of MAO-A ([2]; in presence of UroB 2 uM): 58741 and 70969 and 68316 | Ki ([2]; x-axis intercept of slopes of Lineweaver–Burk plots vs inhibitor concentration): 2300 nM
